# Experimental data taken from ChEMBL document CHEMBL5131426, “Novel hydrazone derivatives of N-amino-11-azaartemisinin with high order of antimalarial activity against multidrug-resistant Plasmodium yoelii nigeriensis in Swiss mice via intramuscular route” (Bioorg Med Chem Lett, 2022).
# How the values were obtained:
# [1] = tested on: Plasmodium yoelii nigeriensis; experiment: Antimalarial activity against multidrug-resistant Plasmodium yoelii nigeriensis infected in Swiss mouse assessed as inhibition of parasitemia at 12 mg/kg, IM for 4 days measured on day 4 relative to control; type: functional; details: 96 h, time 4 day
# [2] = Toxicity in Swiss mouse infected with multidrug-resistant Plasmodium yoelii nigeriensis assessed as animal survival at 24 mg/kg, po for 4 days measured on day 28; type: organism-based; details: in vivo, time 4 day; for Activity: po, 24 mg/kg, 96 h
# [3] = Toxicity in Swiss mouse infected with multidrug-resistant Plasmodium yoelii nigeriensis assessed as animal survival at 12 mg/kg, IM for 4 days measured on day 28; type: organism-based; details: in vivo, time 4 day; for survival at 96 h: Swiss, read-out: Activity
# [4] = tested on: Plasmodium yoelii nigeriensis; experiment: Antimalarial activity against multidrug-resistant Plasmodium yoelii nigeriensis infected in Swiss mouse assessed as inhibition of parasitemia at 12 mg/kg, po for 4 days measured on day 4 relative to control; type: functional; details: 96 h, time 4 day
# [5] = Toxicity in Swiss mouse infected with multidrug-resistant Plasmodium yoelii nigeriensis assessed as animal dead at 12 mg/kg, po for 4 days measured on day 28; type: organism-based; details: in vivo, 96 h, time 4 day
# [6] = tested on: Plasmodium yoelii nigeriensis; experiment: Antimalarial activity against multidrug-resistant Plasmodium yoelii nigeriensis infected in Swiss mouse assessed as inhibition of parasitemia at 24 mg/kg, po for 4 days measured on day 4 relative to control; type: functional; details: 96 h, time 4 day
# [7] = Toxicity in Swiss mouse infected with multidrug-resistant Plasmodium yoelii nigeriensis assessed as animal dead at 12 mg/kg, IM for 4 days measured on day 28; type: organism-based; details: in vivo, 96 h, time 4 day
# [8] = tested on: Plasmodium yoelii nigeriensis; experiment: Antimalarial activity against multidrug-resistant Plasmodium yoelii nigeriensis infected in Swiss mouse assessed as inhibition of parasitemia at 48 mg/kg, po for 4 days measured on day 4 relative to control; type: functional; details: 96 h, time 4 day
# [9] = tested on: Plasmodium yoelii nigeriensis; experiment: Antimalarial activity against multidrug-resistant Plasmodium yoelii nigeriensis infected in Swiss mouse assessed as inhibition of parasitemia at 48 mg/kg, IM for 4 days measured on day 4 relative to control; type: functional; details: 96 h, time 4 day
# [10] = Toxicity in Swiss mouse infected with multidrug-resistant Plasmodium yoelii nigeriensis assessed as animal dead at 48 mg/kg, po for 4 days measured on day 28; type: organism-based; details: in vivo, 96 h, time 4 day
# [11] = tested on: Plasmodium yoelii nigeriensis; experiment: Antimalarial activity against multidrug-resistant Plasmodium yoelii nigeriensis infected in Swiss mouse assessed as inhibition of parasitemia at 24 mg/kg, IM for 4 days measured on day 4 relative to control; type: functional; details: 96 h, time 4 day
# [12] = Toxicity in Swiss mouse infected with multidrug-resistant Plasmodium yoelii nigeriensis assessed as animal survival at 48 mg/kg, IM for 4 days measured on day 28; type: organism-based; details: in vivo, 96 h, time 4 day
# [13] = tested on: Plasmodium yoelii nigeriensis; experiment: Antimalarial activity against multidrug-resistant Plasmodium yoelii nigeriensis infected in Swiss mouse assessed as inhibition of parasitemia at 3 mg/kg, IM for 4 days measured on day 4 relative to control; type: functional; details: 96 h, time 4 day
# [14] = Toxicity in Swiss mouse infected with multidrug-resistant Plasmodium yoelii nigeriensis assessed as animal dead at 6 mg/kg, po for 4 days measured on day 28; type: organism-based; details: in vivo, 96 h, time 4 day
# [15] = tested on: Plasmodium yoelii nigeriensis; experiment: Antimalarial activity against multidrug-resistant Plasmodium yoelii nigeriensis infected in Swiss mouse assessed as inhibition of parasitemia at 6 mg/kg, po for 4 days measured on day 4 relative to control; type: functional; details: 96 h, time 4 day
# [16] = Toxicity in Swiss mouse infected with multidrug-resistant Plasmodium yoelii nigeriensis assessed as animal dead at 3 mg/kg, IM for 4 days measured on day 28; type: organism-based; details: in vivo, 96 h, time 4 day
# [17] = Toxicity in Swiss mouse infected with multidrug-resistant Plasmodium yoelii nigeriensis assessed as animal survival at 6 mg/kg, IM for 4 days measured on day 28; type: organism-based; details: in vivo, time 4 day
# [18] = Toxicity in Swiss mouse infected with multidrug-resistant Plasmodium yoelii nigeriensis assessed as animal survival at 12 mg/kg, po for 4 days measured on day 28; type: organism-based; details: in vivo, 96 h, time 4 day
# [19] = Toxicity in Swiss mouse infected with multidrug-resistant Plasmodium yoelii nigeriensis assessed as animal survival at 24 mg/kg, IM for 4 days measured on day 28; type: organism-based; details: in vivo, time 4 day, read-out: Activity
# [20] = Toxicity in Swiss mouse infected with multidrug-resistant Plasmodium yoelii nigeriensis assessed as animal dead at 24 mg/kg, po for 4 days measured on day 28; type: organism-based; details: in vivo, 96 h, time 4 day
# [21] = tested on: Plasmodium yoelii nigeriensis; experiment: Antimalarial activity against multidrug-resistant Plasmodium yoelii nigeriensis infected in Swiss mouse assessed as inhibition of parasitemia at 6 mg/kg, IM for 4 days measured on day 4 relative to control; type: functional; details: 96 h, time 4 day
smiles,measurement,setting,value
COc1ccc(/C=N/N2C(=O)[C@H](C)[C@@H]3CC[C@@H](C)[C@@H]4CC[C@@]5(C)OO[C@]43[C@H]2O5)cc1,inhibition in vivo at 12 mg/kg,[1],100%
same,Activity,[2],Non-Toxic
same,survival at 96 h,[3],60%
same,inhibition in vivo at 12 mg/kg,[4],100%
same,Activity,[5],Toxic
same,inhibition in vivo at 24 mg/kg,[6],100%
C[C@@H]1CC[C@H]2[C@@H](C)C(=O)N(/N=C/c3ccccc3O)[C@@H]3O[C@@]4(C)CC[C@@H]1[C@@]23OO4,inhibition in vivo at 12 mg/kg,[1],100%
same,survival at 96 h,[3],40%
same,inhibition in vivo at 24 mg/kg,[6],100%
C[C@@H]1CC[C@H]2[C@@H](C)C(=O)N(/N=C/c3cccc([N+](=O)[O-])c3)[C@@H]3O[C@@]4(C)CC[C@@H]1[C@@]23OO4,Activity,[7],Toxic
same,inhibition in vivo at 12 mg/kg,[1],100%
same,inhibition in vivo at 24 mg/kg,[6],100%
C[C@@H]1CC[C@H]2[C@@H](C)C(=O)N(N)[C@@H]3O[C@@]4(C)CC[C@@H]1[C@@]23OO4,Activity,[7],Toxic
same,inhibition in vivo at 12 mg/kg,[1],100%
same,inhibition in vivo at 24 mg/kg,[6],100%
C[C@@H]1CC[C@H]2[C@@H](C)C(=O)O[C@@H]3O[C@@]4(C)CC[C@@H]1[C@]32OO4 [ARTEMISININ],inhibition in vivo at 48 mg/kg,[8],100%
same,inhibition in vivo at 48 mg/kg,[9],100%
same,Activity,[10],Toxic
same,inhibition in vivo at 24 mg/kg,[11],100%
same,Activity,[12],Non-Toxic
C[C@@H]1CC[C@H]2[C@@H](C)C(=O)N(N=C3C4CC5CC(C4)CC3C5)[C@@H]3O[C@@]4(C)CC[C@@H]1[C@@]23OO4,inhibition in vivo at 12 mg/kg,[1],100%
same,survival at 96 h,[3],20%
same,inhibition in vivo at 24 mg/kg,[6],100%
C[C@@H]1CC[C@H]2[C@@H](C)C(=O)N(/N=C/c3ccc(Br)cc3)[C@@H]3O[C@@]4(C)CC[C@@H]1[C@@]23OO4,inhibition in vivo at 12 mg/kg,[1],100%
same,survival at 96 h,[3],60%
same,inhibition in vivo at 24 mg/kg,[6],100%
C[C@@H]1CC[C@H]2[C@@H](C)C(=O)N(N=C3c4ccccc4-c4ccccc43)[C@@H]3O[C@@]4(C)CC[C@@H]1[C@@]23OO4,inhibition in vivo at 12 mg/kg,[1],100%
same,Activity,[2],Non-Toxic
same,Activity,"[3]; im, 12 mg/kg, 96 h",Non-Toxic
same,inhibition in vivo at 12 mg/kg,[4],100%
same,inhibition in vivo at 3 mg/kg,[13],38%
same,Activity,[14],Toxic
same,inhibition in vivo at 6 mg/kg,[15],98%
same,Activity,[16],Toxic
same,inhibition in vivo at 24 mg/kg,[6],100%
same,Activity,"[17]; im, 6 mg/kg, 96 h",Non-Toxic
same,Activity,[18],Non-Toxic
C[C@@H]1CC[C@H]2[C@@H](C)C(=O)N(/N=C/c3ccco3)[C@@H]3O[C@@]4(C)CC[C@@H]1[C@@]23OO4,inhibition in vivo at 12 mg/kg,[1],100%
same,survival at 96 h,"[2]; Swiss, read-out: Activity",80%
same,survival at 96 h,[3],80%
same,inhibition in vivo at 24 mg/kg,[6],100%
C[C@@H]1CC[C@H]2[C@@H](C)C(=O)N(/N=C/c3ccc[nH]3)[C@@H]3O[C@@]4(C)CC[C@@H]1[C@@]23OO4,inhibition in vivo at 12 mg/kg,[1],100%
same,inhibition in vivo at 24 mg/kg,[6],100%
same,survival at 96 h,[19],40%
C[C@@H]1CC[C@H]2[C@@H](C)C(=O)N(N=C3CCCC3)[C@@H]3O[C@@]4(C)CC[C@@H]1[C@@]23OO4,Activity,[20],Toxic
same,inhibition in vivo at 12 mg/kg,[1],100%
same,Activity,[2],Non-Toxic
same,inhibition in vivo at 24 mg/kg,[6],100%
same,survival at 96 h,"[17]; Swiss, read-out: Activity",80%
same,inhibition in vivo at 6 mg/kg,[21],100%
CC(C)=NN1C(=O)[C@H](C)[C@@H]2CC[C@@H](C)[C@@H]3CC[C@@]4(C)OO[C@]32[C@H]1O4,inhibition in vivo at 12 mg/kg,[1],100%
same,inhibition in vivo at 24 mg/kg,[6],100%
C[C@@H]1CC[C@H]2[C@@H](C)C(=O)N(N=C3CCCCC3)[C@@H]3O[C@@]4(C)CC[C@@H]1[C@@]23OO4,inhibition in vivo at 12 mg/kg,[1],100%
same,survival at 96 h,[3],40%
same,inhibition in vivo at 24 mg/kg,[6],100%
C[C@@H]1CC[C@H]2[C@@H](C)C(=O)N(/N=C/c3cccs3)[C@@H]3O[C@@]4(C)CC[C@@H]1[C@@]23OO4,inhibition in vivo at 12 mg/kg,[1],100%
same,inhibition in vivo at 12 mg/kg,[4],100%
same,inhibition in vivo at 24 mg/kg,[6],100%
